Tests used:
[1] = system: individual with chronic back pain associated with standing; test: Treatment of chronic back pain; type: in vivo, human; settings: glycerol tincture, ingested; self-report of one individual
Experimental: An individual who presented with chronic back pain associated with standing was administered a glycerol tincture containing the cannabidiol anion.

[2] = system: individual with chronic pain; test: Treatment of chronic pain; type: in vivo, human; settings: glycerol tincture; self-report of one individual
Experimental: An individual who presented with chronic pain was administered a glycerol tincture containing the cannabidiol anion.

[3] = system: individual with hip pain and lower back pain associated with spinal fusion surgery; test: Treatment of post laminectomy syndrome; type: in vivo, human; settings: glycerol tincture, ingested, self-report
Experimental: An individual with hip pain and lower back pain associated with spinal fusion surgery was administered a glycerol tincture containing the cannabidiol anion.

individual with anxiety = test: Treatment of anxiety; type: in vivo, human
Experimental: An individual was administered a beverage containing the cannabidiol anion prior to driving to an airport to catch a flight that was scheduled to leave within thirty minutes of the arrival at the airport.
An individual who suffers from chronic anxiety was administered a glycerol tincture containing the cannabigerol anion.

[4] = system: individual with cancer pain caused by throat cancer; test: Treatment of cancer pain; type: in vivo, human; settings: water containing the anion, ingested; self-report of one individual
Experimental: An individual who presented with cancer pain caused by throat cancer was administered water containing the cannabidiol anion (2-[6-isopropenyl-3-methylcyclohex-2-en-1-yl]-3-hydroxy-5-pentylphenolate).

[5] = system: individual with cramping and restless legs syndrome; test: Treatment of cramping and restless legs syndrome; type: in vivo, human; settings: glycerol tincture before sleep; self-report of one individual
Experimental: An individual who presented with cramping and restless legs syndrome was administered a glycerol tincture containing the cannabidiol anion before sleep.

[6] = system: individual with arthritis; test: Treatment of arthritis; type: in vivo, human; settings: glycerol tincture; self-report of one individual
Experimental: An individual who was unable to fill […] hydroxychloroquine prescription to treat the arthritis during the COVID-19 pandemic was administered a glycerol tincture containing the cannabidiol anion.

[7] = system: individual with social anxiety associated with presenting at business meetings; test: Treatment of social anxiety; type: in vivo, human; settings: beverage given before presenting at a business meeting; self-report
Experimental: An individual who presented with social anxiety associated with presenting at business meetings was administered a beverage containing the cannabidiol anion before presenting.

[8] = system: individual with hip pain associated with sitting; test: Treatment of chronic hip pain; type: in vivo, human; settings: glycerol tincture, ingested; self-report of one individual
Experimental: An individual who presented with hip pain associated with sitting was administered a glycerol tincture containing the cannabidiol anion.

[9] = system: individual with back pain associated with driving for prolonged periods of time; test: Treatment of acute back pain; type: in vivo, human; settings: glycerol tincture, ingested; self-report of one individual
Experimental: An individual who presented with back pain associated with driving for prolonged periods of time was administered a glycerol tincture containing the cannabidiol anion.

[10] = system: dog that suffers from chronic seizures; test: Treatment of epilepsy; type: in vivo; settings: report of the dog's owners
Experimental: A dog that suffers from chronic seizures was administered a glycerol tincture containing the cannabidiol anion immediately after the onset of a seizure.

[11] = system: individual with knee pain associated with inflammation caused by trauma from a fall; test: Treatment of knee pain; type: in vivo, human; settings: glycerol tincture, ingested; self-report of one individual
Experimental: An individual who presented with knee pain associated with inflammation caused by trauma from a fall was administered a glycerol tincture containing the cannabidiol anion.

[12] = system: individual with chronic insomnia; test: Treatment of insomnia; type: in vivo, human; settings: glycerol tincture before sleep; self-report of one individual
Experimental: An individual who presented with chronic insomnia was administered a glycerol tincture containing the cannabigerol anion before sleep.

[13] = system: individual with Inflammatory Bowel Disease; test: Treatment of Inflammatory Bowel Disease; type: in vivo, human; settings: glycerol tincture; self-report of one individual
Experimental: An individual who presented with Inflammatory Bowel Disease was administered a glycerol tincture containing the cannabigerol anion.

[14] = system: individual with Crohn's disease; test: Treatment of Crohn's disease; type: in vivo, human; settings: glycerol tincture; self-report of one individual
Experimental: An individual who presented with Crohn's disease was administered a glycerol tincture containing the cannabigerol anion.

Row | SMILES | reported effect on chronic back pain [1] | reported effect in chronic pain (standard of living) [2] | reported effect on hip pain and lower back pain [3] | reported anxiety during a drive to an airport (individual with anxiety; beverage given prior to driving, self-report of one individual) | reported effect on throat pain [4] | reported effect on sleep quality [5] | reported effectiveness at treating arthritis compared with hydroxychloroquine [6] | reported effect on social anxiety and performance [7] | reported effect on hip pain [8] | reported effect on back pain [9] | effect on seizures ([10]; glycerol tincture immediately after the onset of a seizure) | effect on quality of life ([10]; glycerol tincture) | reported effect on mobility and knee pain [11] | reported effect on onset and quality of sleep [12] | reported effect on symptoms of Inflammatory Bowel Disease [13] | reported effect on chronic anxiety symptoms (individual with anxiety; glycerol tincture, individual who suffers from chronic anxiety, self-report) | reported effect on symptoms of Crohn's disease [14]
1 | C=C(C)C1CCC(C)=CC1c1c(O)cc(CCCCC)cc1O (centres unmarked) [cannabidiol anion, 2-[6-isopropenyl-3-methylcyclohex-2-en-1-yl]-3-hydroxy-5-pentylphenolate] | notable alleviation of the back pain within minutes of ingestion | significant improvement in their standard of living | notable alleviation of hip pain and lower back pain within minutes of ingestion | notable absence of anxiety | notable alleviation of throat pain within minutes of ingestion | significant improvement in sleep quality | more effective at treating their arthritis than hydroxychloroquine | reduced anxiety and improved performance during the business meeting | notable alleviation of the hip pain within minutes of ingestion | notable alleviation of the back pain within minutes of ingestion | both instantaneously and consistently arrested multiple seizures in the dog | significantly improved the dog's quality of life | improved mobility and alleviation of knee pain within minutes of ingestion | – | – | – | –
2 | CCCCCc1cc(O)c(CC=C(C)CCC=C(C)C)c(O)c1 [cannabigerol anion, 2-[3,7-dimethylocta-2,6-diene-1-yl]-3-hydroxy-5-pentylphenolate] | – | – | – | – | – | – | – | – | – | – | – | – | – | significant improvement in the onset and quality of their sleep | significant improvement in their symptoms of Inflammatory Bowel Disease | significant improvement in their anxiety symptoms | significant improvement in their symptoms of Crohn's disease
